# How the values were obtained:
# [1] = test system: AAD-12 x AAD-1 F1 cross tobacco; assay: Auxinic herbicide cross tolerance of stacked tobacco, F1 cross; assay type: in vivo, Nicotiana tabacum; conditions: AAD-12 (v1) x AAD (v3) F1
# Method: (§1) Homozygous AAD-12 (v1) (pDAS1580) and AAD-1 (v3) (pDAB721) plants (see PCT/US2005/014737 for the latter) were both reciprocally crossed and F1 seed was collected. The F1 seed from two reciprocal crosses of each gene were stratified and treated 4 reps of each cross were treated under the same spray regimen as used for the other testing with one of the following treatments: 70, 140, 280 g ac/ha fluroxypyr (selective for the AAD-12 (v1) gene); 280, 560, 1120 g ae/ha R-dichloroprop (selective for the AAD-1 (v3) gene); or 560, 1120, 2240 g ae/ha 2,4-D DMA (to confirm 2,4-D tolerance). Homozygous T2 plants of each gene were also planted for use as controls. Plants were graded at 3 and 14 DAT.
# [2] = test system: AAD-12 (v1) T1 tobacco plants; assay: Cross tolerance of T1 tobacco to phenoxy and pyridyloxy auxin herbicides; assay type: in vivo, Nicotiana tabacum; conditions: 4× field rate (2240 g ae/ha) for 2,4-D or below
# Text: Two to four T0 individuals surviving high rates of 2,4-D and fluroxypyr were saved from each event and allowed to self fertilize in the greenhouse to give rise to T1 seed. The T1 seed was stratified, and sown into selection trays much like that of Arabidopsis (Example 7.4), followed by selective removal of untransformed nulls in this segregating population with 560 g ai/ha glufosinate (PAT gene selection). Survivors were transferred to individual 3-inch pots in the greenhouse. These lines provided high levels of resistance to 2,4-D in the T0 generation. Improved consistency of response is anticipated in T1 plants not having come directly from tissue culture. These plants were compared against wildtype KY160 tobacco. All plants were sprayed with a track sprayer set at 187 L/ha. The plants were sprayed from a range of 140-2240 g ac/ha 2,4-D dimethylamine salt (DMA), 70-1120 g ace/ha triclopyr or 35-560 g ae/ha fluroxypyr. All applications were formulated in water. Each treatment was replicated 2-4 times. Plants were evaluated at 3 and 14 days after treatment. Plants were assigned injury rating with respect to stunting, chlorosis, and necrosis. The T1 generation is segregating, so some variable response is expected due to difference in zygosity.
# [3] = test system: wild-type tobacco line (KY160); assay: Field tolerance of tobacco, wild-type line; assay type: in vivo, Nicotiana tabacum; conditions: for Average % Injury across locations at 14 DAT: Wild type
# Method: Field level tolerance trials were conducted on three AAD-12 (v1) lines (events pDAS1580-[1]-018.001, pDAS1580-[1]-004.001 and pDAS1580-[1]-020.016) and one wild-type line (KY160) at field stations in Indiana and Mississippi. Tobacco transplants were grown in the greenhouse by planting T1 seed in 72 well transplant flats (Hummert International) containing Metro 360 media according to growing conditions indicated above. The null plants were selectively removed by Liberty selection as previously described. The transplant plants were transported to the field stations and planted at either 14 or 24 inches apart using industrial vegetable planters. Drip irrigation at the Mississippi site and overhead irrigation at the Indiana site were used to keep plants growing vigorously.
# The experimental design was a split plot design with 4 replications. The main plot was herbicide treatment and the sub-plot was tobacco line. The herbicide treatments were 2,4-D (dimethylamine salt) at 280, 560, 1120, 2240 and 4480 g ac/ha, triclopyr at 840 g ae/ha, fluroxypyr at 280 g ac/ha and an untreated control. Plots were one row by 25-30 ft. Herbicide treatments were applied 3-4 weeks after transplanting using compressed air backpack sprayer delivering 187 L/ha carrier volume at 130-200 kpa pressure. Visual rating of injury, growth inhibition, and epinasty were taken at 7, 14 and 21 days after treatment.
# [4] = test system: AAD-12 (v1) (pDAS1580) T2 tobacco plants; assay: Auxinic herbicide cross tolerance of stacked tobacco, AAD-12 T2; assay type: in vivo, Nicotiana tabacum
# Method: as §1
# [5] = test system: AAD-12 (v1) pDAB4101 corn events (4101(0)003.R.003.AF and 4101(0)005.R001.AF); assay: Field tolerance of corn: visual injury and brace root injury, AAD-12 events; assay type: in vivo, Zea mays
# Method: Seeds were planted with cone planter on 40-inch row spacing at Wayside and 30 inch spacing at Fowler. […] Herbicide treatments were 2,4-D (dimethylamine salt) at 1120, 2240 and 4480 g ae/ha, triclopyr at 840 g ae/ha, fluroxypyr at 280 g ae/ha and an untreated control. The AAD-12 (v1) events contained the AHAS gene as a selectable marker. The F2 corn events were segregating so the AAD-12 (v1) plants were treated with imazethapyr at 70 g ae/ha to remove the null plants. Herbicide treatments were applied when corn reached the V6 stage using compressed air backpack sprayer delivering 187 L/ha carrier volume at 130-200 kpa pressure. […]
# [6] = test system: AAD-12 (v1) canola events 3759(20)018.001 and 3759(18)030.001; assay: Field tolerance of canola, AAD-12 events; assay type: in vivo, Brassica napus; conditions: for average injury: 14DAT
# Method: Field level tolerance trial was conducted on two AAD-12 (v1) events 3759(20)018.001 and 3759(18)030.001 and a wild-type canola (Nex710) in Fowler, Ind. The experimental design was a randomized complete block design with 3 replications. Herbicide treatments were 2,4-D (dimethylamine salt) at 280, 560, 1120, 2240 and 4480 g ac/ha, triclopyr at 840 g ae/ha, fluroxypyr at 280 g ae/ha and an untreated control. Within each herbicide treatment, single 20 ft row/event for event 3759(18)030.0011, 3759(18)018.001 and wild-type line (Nex710) were planted with a 4 row drill on 8 inch row spacing. Herbicide treatments were applied when canola reached the 4-6 leaf stage using compressed air backpack sprayer delivering 187 L/ha carrier volume at 130-200 kpa pressure. […]
compound,measurement,setting,value
"O=C(O)COc1ccc(Cl)cc1Cl [2,4-D, 2,4-dichlorophenoxyacetic acid]",Average % injury 14 DAT,[1]; 560 g ae/ha,0%
same,Average % injury 14 DAT,[1]; 1120 g ae/ha,0%
same,Average % injury 14 DAT,[1]; 2240 g ae/ha,0%
same,injury,[2],No injury
same,injury,"[3]; 2,4-D at 560 g ae/ha (1× field application rate), 14 DAT",63%
same,Average % Injury across locations at 14 DAT,[3]; 280 GM AE/HA,48%
same,Average % Injury across locations at 14 DAT,[3]; 560 GM AE/HA,63%
same,Average % Injury across locations at 14 DAT,[3]; 1120 GM AE/HA,78%
same,Average % Injury across locations at 14 DAT,[3]; 2240 GM AE/HA,87%
same,Average % Injury across locations at 14 DAT,[3]; 4480 GM AE/HA,92%
same,Average % injury 14 DAT,[4]; 560 g ae/ha,0%
same,Average % injury 14 DAT,[4]; 1120 g ae/ha,0%
same,Average % injury 14 DAT,[4]; 2240 g ae/ha,0%
same,visual injury,"[5]; 2,4-D at the 1, 2 and 4× rates, V6 stage, 14 DAT",0%
same,brace root injury,"[5]; 4480 g ae/ha of 2,4-D",no brace root injury
same,% Visual Injury 14DAT,"[5]; AAD-12 4101(0)003.R.003.AF, 1120 g ae/ha",0%
same,% Visual Injury 14DAT,"[5]; AAD-12 4101(0)003.R.003.AF, 2240 g ae/ha",0%
same,% Visual Injury 14DAT,"[5]; AAD-12 4101(0)003.R.003.AF, 4480 g ae/ha",0%
same,% Visual Injury 14DAT,"[5]; AAD-12 4101(0)005.001.AF, 1120 g ae/ha",0%
same,% Visual Injury 14DAT,"[5]; AAD-12 4101(0)005.001.AF, 2240 g ae/ha",1%
same,% Visual Injury 14DAT,"[5]; AAD-12 4101(0)005.001.AF, 4480 g ae/ha",1%
same,Brace Root Injury Rating (0-10 scale) 28DAT,"[5]; AAD-12 event 4101(0)003.R.003.AF, 1120 g ae/ha",0
same,Brace Root Injury Rating (0-10 scale) 28DAT,"[5]; AAD-12 event 4101(0)003.R.003.AF, 2240 g ae/ha",0
same,Brace Root Injury Rating (0-10 scale) 28DAT,"[5]; AAD-12 event 4101(0)003.R.003.AF, 4480 g ae/ha",0
same,Brace Root Injury Rating (0-10 scale) 28DAT,"[5]; AAD-12 event 4101(0)005.001.AF, 1120 g ae/ha",0
same,Brace Root Injury Rating (0-10 scale) 28DAT,"[5]; AAD-12 event 4101(0)005.001.AF, 2240 g ae/ha",0
same,Brace Root Injury Rating (0-10 scale) 28DAT,"[5]; AAD-12 event 4101(0)005.001.AF, 4480 g ae/ha",0
same,average injury,"[6]; 2,4-D at the 1× rate",2%
same,average injury,"[6]; 2,4-D at the 2× rate",3%
same,average injury,"[6]; 2,4-D at the 4× rate",2%
same,% Visual Injury at 14 DAT,"[6]; AAD-12 event 3759(18)030.001, 280 GM AE/HA",0 b %
same,% Visual Injury at 14 DAT,"[6]; AAD-12 event 3759(18)030.001, 560 GM AE/HA",0 b %
same,% Visual Injury at 14 DAT,"[6]; AAD-12 event 3759(18)030.001, 1120 GM AE/HA",2 ab %
same,% Visual Injury at 14 DAT,"[6]; AAD-12 event 3759(18)030.001, 2240 GM AE/HA",3 ab %
same,% Visual Injury at 14 DAT,"[6]; AAD-12 event 3759(20)018.001, 280 GM AE/HA",0 a %
same,% Visual Injury at 14 DAT,"[6]; AAD-12 event 3759(20)018.001, 560 GM AE/HA",0 a %
same,% Visual Injury at 14 DAT,"[6]; AAD-12 event 3759(20)018.001, 1120 GM AE/HA",2 a %
same,% Visual Injury at 14 DAT,"[6]; AAD-12 event 3759(20)018.001, 2240 GM AE/HA",3 a %

# Source: US11371055B2, “Herbicide resistance genes” (CORTEVA AGRISCIENCE LLC, priority 2005, dated 2022)
